Experimental findings from patent US11938122B2, “5-[[4-[2-[5-(1-hydroxyethyl)pyridin-2-yl]ethoxy]phenyl]methyl]-1,3- thiazolidine-2,4-dione for treating nonalcoholic fatty liver disease” (Minoryx Therapeutics S.L., priority 2016, dated 2024) are described below.

Molecules are shown by their SMILES. pIC50: −log10 of the molar value.

Data set [1] relates to major drug metabolizing cytochrome P450 (CYP) enzymes. Nature of the data set: Reversible and time-dependent inhibition (TDI) of major CYP enzymes, human liver microsomes. The settings on record: in vitro concentrations of 100 μM or lower. Type of data set: in vitro ADME. As for the experimental part: (§1) Inhibition was screened using a cocktail incubation with CYP specific substrates for eight major drug metabolizing CYP enzymes (CYPs 1A2, 2A6, 2B6, 2C8, 2C9, 2C19, 2D6 and 3A4) in incubations with a pool of human liver microsomes. In reversible inhibition, MIN-102 was incubated with buffer, microsomes, cofactor NADPH and CYP-specific substrate cocktail mix for 15 min. In TDI study, buffer and microsomes were preincubated with MIN-102 in the presence and absence of cofactor NADPH for 0 or 30 min to elucidate the possible time-dependency of inhibition. Secondary incubation was conducted with CYP-specific substrate cocktail mix for 30 min. MIN-102 was used at final concentrations of 0.01, 0.1, 1, 10, and 100 μM in both assays.

Data set [2] in a line: MIN-102 single oral dose (SAD) pharmacokinetics in healthy subjects. The settings on record: human, in vivo, some doses.
Data set [3] has as its system CYP3A4. Nature of the data set: CYP induction in cryopreserved human hepatocytes. The data set is classed as in vitro ADME. The settings on record: 50 μM, hepatocytes from 3 human donors.
Data set [4] has as its system CYP2B6. The data set is described as follows: CYP induction in cryopreserved human hepatocytes. Type of data set: in vitro ADME. The conditions noted are these: 50 μM, hepatocytes from 3 human donors.
Data set [5] concerns MCD diet NASH mouse model. The data set is described as follows: Methionine Choline Deficient (MCD) diet NASH mouse model. The conditions noted are these: 62.5 mg/kg BID oral, 7 weeks. The data set is classed as in vivo. The source says:
According to one NASH model in mice (See Verdelho Machado et al., PlosOne May 27:10(5):e0127991 (2015)), male C57BL/6 inbred mice, aged 8 weeks, were obtained from Charles River, France. During the acclimation phase, standard (control chow) diet (RM1 (E) 801492, SDS) and tap water was provided ad libitum. Mice were then fed a Methionine Choline Deficient (MCD) diet (ref #A02082002B from Research Diets, USA) supplemented without or with the test item, provided ad libitum. All procedures were performed in accordance with the Guide for the Care and Use of Laboratory Animals (revised 1996 and 2011, 2010/63/EU) and French laws. 20 animals were housed in ventilated and enriched housing cages (310×125×127 mm^3) throughout the experimental phase. Animals' cages litters were changed at least once a week. They were housed in groups of 10 animals during the whole study, on a normal 12 hours light cycle (at 08:00 pm lights off), 22±2° C. and 50±10% relative humidity.
After the acclimation period, mice (n=20) were weighed and randomized into 2 homogenous treatment groups based on body weight (n=10/group), put on a MCD diet, and treated BID orally with vehicle or MIN-102 for 7 weeks. Body weight was measured 3 times/week until the end of the experimental phase. At 7 weeks of diet/treatment, mice were weighed and treated at ˜08:00 am in the morning, then bled (maximal volume/EDTA) at ˜1:00 pm. Plasma was then immediately isolated and stored at […] prior to assay plasma ALT and AST. The plasma volume left over was stored at […] for eventual additional analysis.
After blood collection, mice were sacrificed by cervical dislocation under isoflurane anesthesia and exsanguinated with sterile saline. Liver was collected and weighted. A ˜20 mg liver sample (weight recorded) was dissected for hepatic total cholesterol and triglycerides levels. A 0.5 cm^3 liver sample was frozen in isopentane for oil red O staining. […]
A NAFLD scoring system (NAS) adapted from Kleiner et al. (Hepatology. 41(6):1313-1321 (2005)) was used. An individual mouse NAS total score was calculated for each animal by summing up the score for (1) hepatocellular steatosis, (2) liver inflammation, (3) lobular fibrosis, and (4) hepatocyte ballooning. […]
Data are expressed as mean±SEM. […]
The preventive effects of MIN-102 was evaluated in a 7-week Methionine Choline Deficient (MCD) diet NASH mouse model (Verdelho Machado et al.). […]
After the acclimation period, C57BL6/J male mice (n=20) were weighed and randomized into 2 homogenous treatment groups based on body weight (n=10/group), put on a MCD diet, and treated BID orally with a vehicle or MIN-102 (125 mg/Kg/day) for 7 weeks. Body weight was measured 3 times/week until the end of the experimental phase. […]

In data set [6] the target is T1, CYP1A2 (Homo sapiens, UniProt P05177).
T1 construct: in incubations with a pool of human liver microsomes; from tissue; host or cells: pooled human liver microsomes
T1 sequence (P05177 1-516): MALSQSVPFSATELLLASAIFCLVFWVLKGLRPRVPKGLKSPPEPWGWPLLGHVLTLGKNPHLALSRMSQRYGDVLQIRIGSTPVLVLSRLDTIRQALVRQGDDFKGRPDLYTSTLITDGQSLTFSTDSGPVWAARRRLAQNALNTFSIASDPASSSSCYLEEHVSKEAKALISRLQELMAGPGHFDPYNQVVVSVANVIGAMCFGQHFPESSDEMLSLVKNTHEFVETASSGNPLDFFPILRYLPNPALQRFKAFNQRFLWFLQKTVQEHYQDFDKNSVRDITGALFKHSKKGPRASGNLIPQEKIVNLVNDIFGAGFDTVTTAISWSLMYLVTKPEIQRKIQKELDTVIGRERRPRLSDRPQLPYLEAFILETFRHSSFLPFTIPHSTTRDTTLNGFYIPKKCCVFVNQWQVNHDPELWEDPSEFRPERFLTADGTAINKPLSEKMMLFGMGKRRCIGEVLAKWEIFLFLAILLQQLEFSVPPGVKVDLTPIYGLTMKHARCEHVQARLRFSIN
The data set is described as follows: CYP inhibition, cocktail incubation, pooled human liver microsomes. The data set is classed as in vitro ADME. The conditions noted are these: reaction ACET. As for the experimental part: as §1

Data set [7] concerns CYP1A2. The data set is described as follows: CYP induction in cryopreserved human hepatocytes. The conditions noted are these: 50 μM, hepatocytes from 3 human donors. The data set is classed as in vitro ADME.

In the case of `CC(O)c1ccc(CCOc2ccc(CC3SC(=O)NC3=O)cc2)nc1` (racemic) [MIN-102, 5-[[4-[2-[5-(1-hydroxyethyl)pyridin-2-yl]ethoxy]phenyl]methyl]-1,3-thiazolidine-2,4-dione], the “reversible or time-dependent inhibition towards major CYP enzymes” value in data set [1] was “did not cause remarkable reversible or time-dependent inhibition”. In addition, the AUC(0-inf) in data set [2] lay within 20 to 400 µg·h/mL. Further, in data set [3], the “increase in CYP3A4 mRNA” value was “less than 20 % of the respective positive control induction” and the “increase in activity of CYP3A4 probe reaction” value was “less than 20 % of the respective positive control induction”. Moreover, in data set [4], the “increase in activity of CYP2B6 probe reaction” value was “less than 20 % of the respective positive control induction”. In addition, the “Mean NAS group score” value in data set [5] (mean±SEM) was 0.44±01. Also, in data set [5] (vs vehicle), the “reduction in hepatic triglycerides levels” value is 92%, the “reduction of plasma ALT level” value was determined as 78% and the “reduction of plasma AST level” value is 55%. The negative logarithm of the IC50 (pIC50) in data set [6] is less than 4.00. Also, the “increase in activity of CYP1A2 probe reaction” value in data set [7] is recorded as “less than 20 % of the respective positive control induction”.
